Laboratory results as given in patent US12171745B2, “Compositions and methods for treating non-hemorrhagic closed head injury” (Boulder BioScience LLC, priority 2022, dated 2024).
Each block holds one compound with its values, some of them ahead of it.

Assays:
[1] = tested on: Moderate-to-Severe TBI in the Sprague Dawley Rat; assay: Extracellular Vesicle (EV) isolation and measurement after lateral fluid percussion TBI; assay type: in vivo; conditions: plasma EVs 1 day post-surgery, NTA
From the text: (§1) Evaluation of 3,3′-diindolylmethane (DIM) in a clinically relevant animal model of Traumatic Brain Injury (TBI) utilized the Lateral Fluid Percussion (LFP) brain injury method. LFP is the most established and frequently used method for evaluating mixed focal and diffuse brain injury (Thompson H J, Lifshitz J, Marklund N, Grady M S, Graham D I, Hovda D A, McIntosh T K. Lateral fluid percussion brain injury: a 15-year review and evaluation. J Neurotrauma. 2005 January; 22(1):42-75.). Using rats, the parasagittal LFP model recreates the physiological, pathological, and neurobehavioral sequela of TBI in humans. […] Over the days following surgery, rats were assessed for sensorimotor deficits, associative learning and memory, cortical and hippocampal edema, Extracellular Vesicle (EV) levels, and histopathological damage. […]
(§2) Approximately 12-24 h after the preparation surgery, the rats were anesthetized with 3% isoflurane, 70% nitrous oxide and 30% oxygen, intubated, connected to a respirator, and ventilated to be maintained on 1-3% isoflurane in a mixture of 70% nitrous oxide and oxygen. […] Following administration of pancuronium, TBI DIM Premix and Vehicle group rats inspired oxygen was reduced to 21% to maintain blood pO2 levels at approximately 85-95 mmHg. pCO2 levels were monitored to remain at physiological levels of 34 to 46 mmHg. […]

[2] = tested on: Moderate-to-Severe TBI in the Sprague Dawley Rat; assay: Histology analysis (H&E, NeuN) after lateral fluid percussion TBI; assay type: in vivo; conditions: 10 days post FPI
From the text: as §1, §2

[3] = Eur. J. Pharmacol. 2022; 919:174812; cited from earlier work
[4] = Clin. Cancer Res. 10:5233-5241 (2004); cited from earlier work
[5] = Solubility of aripiprazole in the SMEDDS DIM formulation

SMILES: c1ccc2c(Cc3c[nH]c4ccccc34)c[nH]c2c1 [DIM, 3,3′-diindolylmethane]
EV concentration (numbers) ([1]; versus TBI Vehicle, p=0.0415): prevented the significant increase in EV numbers
EV particle size ([1]; versus untreated TBI animals, p=0.0117): maintenance of a larger EV particle size
Animals with cortical contusion absent [2]: 50%
Anti-thrombotic activity [3]: anti-thrombotic activity
Bleeding time [3]: prolong bleeding time

SMILES: OCc1c[nH]c2ccccc12 [indole-3-carbinol]
Conversion in vivo [4]: converts to DIM and LTR in vivo

Solubility of the aripiprazole in the SMEDDS DIM formulation [5]: approximately 1.5%
Dissolution of aripiprazole in SMEDDS DIM, observation ([5]; 1.2% (10 mg aripiprazole, 0.81 grams SMEDDS DIM), stored overnight, warmed to about 35 degrees C.): all had dissolved
Aripiprazole still in suspension ([5]; 2.0% (10 mg aripiprazole, 0.49 grams SMEDDS DIM)): less than 2 mg
Dissolution of aripiprazole in SMEDDS DIM, observation ([5]; 2.0% (10 mg aripiprazole, 0.49 grams SMEDDS DIM), stored overnight, warmed to about 35 degrees C.): had not quite dissolved
Dissolution of aripiprazole in SMEDDS DIM, observation ([5]; 5.0% (25 mg aripiprazole, 0.475 grams SMEDDS DIM)): white solids clearly present
Dissolution of aripiprazole in SMEDDS DIM, observation ([5]; 10% (50 mg aripiprazole, 0.45 grams SMEDDS DIM)): white solids clearly present
Dose of aripiprazole that can be dissolved ([5]; in standard dose of 100 mg DIM contained in 825 mg of the SMEDDS DIM): up to 10 mg
SMILES: O=C1CCc2ccc(OCCCCN3CCN(c4cccc(Cl)c4Cl)CC3)cc2N1 [aripiprazole]
